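Cultured in 96-well plates, cells were exposed to test compound for 48 hours across five concentrations. TGI: concentration producing complete growth inhibition.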
What was measured:
Experiment in all cases: inhibition of tumour cell growth, NCI panel, 48 h
UACC-257 melanoma = system: UACC-257 melanoma
NCI-H23 lung = system: NCI-H23 lung
UACC-62 melanoma = system: UACC-62 melanoma
M14 melanoma = system: M14 melanoma
SK-MEL-2 melanoma = system: SK-MEL-2 melanoma
NCI-H460 lung = system: NCI-H460 lung
SW-620 colon = system: SW-620 colon
RPMI-8226 leukemia = system: RPMI-8226 leukemia
DU-145 prostate = system: DU-145 prostate
HOP-92 NSCLC = system: HOP-92 NSCLC
SF-295 CNS = system: SF-295 CNS

Row | Structure (SMILES) | TGI (UACC-257 melanoma) | TGI (NCI-H23 lung) | TGI (UACC-62 melanoma) | TGI (M14 melanoma) | TGI (SK-MEL-2 melanoma) | TGI (NCI-H460 lung) | TGI (SW-620 colon) | TGI (RPMI-8226 leukemia) | TGI (DU-145 prostate) | TGI (HOP-92 NSCLC) | TGI (SF-295 CNS)
1 | O=C(/C=C1\N=C(c2ccccc2)N(c2ccc3c(c2)Sc2cc(N4C(=O)/C(=C/C(=O)/C=C/c5ccccc5)N=C4c4ccccc4)ccc2N3)C1=O)/C=C/c1ccccc1 | 83 µM | > 100 µM | 33.3 µM | > 100 µM | 38.2 µM | > 100 µM | > 100 µM | > 100 µM | > 100 µM | > 100 µM | 57 µM
2 | COC(=O)c1nc2c(C)c(O)c(O)c([C@H](C)CCC=C(C)C)c2o1 | 78 µM | 89.8 µM |  | > 100 µM | 59.7 µM | > 100 µM | > 100 µM | > 100 µM | > 100 µM | 66.7 µM | 47 µM
3 | COCOc1cc(OC)ccc1C=O | > 100 µM | > 100 µM | > 100 µM | > 100 µM | > 100 µM | > 100 µM | > 100 µM |  | > 100 µM |  | > 100 µM
4 | COC(=O)CP1(=O)OC2C(C3CCC2(C)C3(C)C)N1c1cc(C(F)(F)F)cc(C(F)(F)F)c1 (stereo unspecified) | > 100 µM | 86.3 µM | > 100 µM | > 100 µM | 46.4 µM | 86.2 µM | 88.3 µM | 42.5 µM | > 100 µM |  | 48.2 µM
5 | CC1(C)COC(c2cccc(C3=NC(C)(C)CO3)c2)=N1 | > 100 µM | > 100 µM | > 100 µM | > 100 µM | > 100 µM | > 100 µM | > 100 µM | > 100 µM | > 100 µM | > 100 µM | 
6 | CC1(C)OC1CC/C(=C/CBr)CBr (stereo unspecified) | 28.8 µM | 29.6 µM |  | 36.5 µM | 29 µM | 29 µM | 28.7 µM | 40.7 µM | 55.6 µM | 29.4 µM | 27.6 µM
7 | Cc1cc2nc3c(C#N)c(-c4ccccc4)/c(=C\Nc4cccc(C(F)(F)F)c4)c(=O)n3c2cc1C | > 100 µM | > 100 µM |  | > 100 µM | > 100 µM | > 100 µM | > 100 µM | > 100 µM |  |  | > 100 µM
8 | CC1(C(O)c2ccccc2)CN(C(C)(C)C)C(=O)/C1=C\Sc1ccccc1 (stereo unspecified) | 95.2 µM | > 100 µM | > 100 µM | > 100 µM | > 100 µM |  | > 100 µM | > 100 µM | > 100 µM | 21.7 µM | > 100 µM
9 | Cn1c2ccccc2n2c(=O)c(-c3ccc(O)cc3)nnc12 | > 100 µM | > 100 µM |  | > 100 µM | > 100 µM | > 100 µM | > 100 µM |  | > 100 µM | > 100 µM | > 100 µM
10 | CCC(=O)O[C@@H]1C2C(OC(C)=O)C34COC(C)([C@@H]3C3C(C[C@]3(C)OC(C)=O)[C@@H](OC(=O)c3ccccc3)C4=O)[C@H](OC(C)=O)[C@@]2(OC(C)=O)C[C@@H]1C (stereo partly specified) | > 100 µM | 45 µM | > 100 µM | > 100 µM | > 100 µM | > 100 µM | > 100 µM | > 100 µM |  | 40.8 µM | 48.7 µM
11 | O=c1[nH]c2ccc(CC(=S)N3CCN(c4ccccc4)CC3)cc2s1 | > 100 µM | > 100 µM | > 100 µM | > 100 µM | > 100 µM | 56.1 µM | > 100 µM | 49.8 µM | > 100 µM |  | > 100 µM
12 | CC(=O)OC(C)(C)C1CCC(C)(C(O)COc2ccc(CCNC(=O)c3ccccc3)cc2)O1 (stereo unspecified) | > 100 µM | > 100 µM | > 100 µM | > 100 µM | > 100 µM | > 100 µM | > 100 µM | > 100 µM |  | > 100 µM | > 100 µM
13 | CCOC(=O)Cc1csc(/N=C\c2c(O)c3ccccc3oc2=O)n1 | 74.5 µM | 94.4 µM | > 100 µM | > 100 µM | 40.4 µM | > 100 µM | > 100 µM | 51.6 µM |  | 47.3 µM | 68.2 µM
14 | CC(=O)c1nc2ccccc2n1CC(=O)c1ccc([N+](=O)[O-])cc1 | > 100 µM | > 100 µM | 60.9 µM | > 100 µM |  | 68.6 µM | 41.6 µM | > 100 µM | > 100 µM |  | 36.1 µM
15 | CC(=O)OCCOCNC(=S)N/N=C(\C)c1ccco1 | > 100 µM | > 100 µM | > 100 µM | > 100 µM | > 100 µM | > 100 µM | > 100 µM |  |  |  | > 100 µM
16 | CCOC(=O)[C@H]1Nc2ccc(O)cc2C2c3ccccc3CC21 (stereo partly specified) | > 100 µM | > 100 µM | > 100 µM | > 100 µM | > 100 µM | > 100 µM | > 100 µM | > 100 µM |  |  | 
17 | CC(=O)NC1C(OCC(=O)NC(C)C(=O)NC(CCC(=O)NCCCCCNc2ccc([N+](=O)[O-])c3[nH]c4ccccc4c(=O)c23)C(N)=O)C(O)C(CO)OC1(C)OCc1ccccc1 (stereo unspecified) | > 50 µM | > 50 µM | > 50 µM | > 50 µM | > 50 µM | > 50 µM | > 50 µM | 36.6 µM | > 50 µM |  | > 50 µM
18 | COc1cc(/C=C\c2ccc(SC)cc2)cc(OC)c1OC |  | 0.408 µM | > 100 µM | > 100 µM | 0.841 µM | > 49.3 µM | > 100 µM | 25.2 µM | > 100 µM | > 46.1 µM | < 0.0204 µM
19 | CC(=O)OCc1ccc(-c2nc(C#N)c(N)o2)o1 | > 10 µM | > 10 µM | > 10 µM | > 10 µM |  | > 10 µM | > 10 µM | > 10 µM | > 10 µM | > 10 µM | > 10 µM
20 | Cc1cccc(Nc2cn(CCOc3ccccc3)c(=O)[nH]c2=O)c1 | > 100 µM | > 100 µM | > 100 µM | > 100 µM |  | > 100 µM | > 100 µM | > 100 µM | > 100 µM | 84 µM | > 100 µM
21 | CCCCc1ccc(N2C(=O)c3cc(C)cnc3S2(=O)=O)cc1 |  | > 100 µM |  | > 100 µM | > 100 µM | > 100 µM | > 100 µM | > 100 µM | > 100 µM | > 100 µM | > 100 µM
